# From patent US12421254B2, “KRAS modulators and uses thereof” (Quanta Therapeutics, Inc., priority 2023, dated 2025)
# Read-outs that look alike come from different tables or passages of the source.
# Experiments:
# KRAS G12V/RAF1 = target: T1, KRAS G12V/RAF1 (Homo sapiens, UniProt P01116, G12V); assay: Protein-protein interaction (PPI) HTRF assay KRAS G12V/RAF1; format: binding; conditions: Table 3
# T1 construct: KRAS (1-169) proteins were expressed in BL21 (DE3)-CodonPlus E. coli; His6-MBP (N, cleaved yes)
# T1 sequence (P01116 with tags, fused parts or gaps isoform P01116-2 G12V): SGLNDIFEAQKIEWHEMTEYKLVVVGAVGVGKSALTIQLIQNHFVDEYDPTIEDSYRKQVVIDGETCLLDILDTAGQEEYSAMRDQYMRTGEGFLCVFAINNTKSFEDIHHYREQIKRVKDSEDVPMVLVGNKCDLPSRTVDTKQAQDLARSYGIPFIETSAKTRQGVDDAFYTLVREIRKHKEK
# Procedure: (§1) When RAS proteins are in the active GTP-bound conformation, they bind the effector protein RAF1 at the N-terminus Ras-binding domain (RBD, residues 52-131) (Tran, et al., 2021). Homogenous time resolved fluorescence (HTRF) was used to monitor the interaction between wt or mutant KRAS and RAF1 or wt NRAS and RAF1. Compounds were assayed in the presence of KRAS G12D/V and RAF1 versus wt KRAS to assess activity against mutant and w.t. KRAS. Similarly, compounds were then assayed in the presence of w.t. NRAS and RAF1 to assess RAS isoform selectivity. In all assay formats, His-tagged RAF1 protein was incubated with the HTRF donor, anti-6His Tb Cryptate gold (Cisbio 61DB10RDF), and biotinylated RAS proteins were incubated with the HTRF acceptor, streptavidin-d2 (CisBio 610SADLA). The intensity of the fluorescence signal emitted is proportional to binding between the two proteins. The donor solution was prepared by mixing 16 nM His-tagged RAF1 in protein dilution buffer with 1:100 anti-6His Tb cryptate in PPI-Terbium detection buffer. 16 nM biotinylated RAS protein was diluted into protein dilution buffer (50 mM Tris-HCl pH 7.5, 150 mM NaCl, 0.1 mM MgCl2, 1 mM TCEP, 0.005% Tween20) and mixed with 1:2000 Streptavidin-d2 diluted in PPI-Terbium detection buffer (CisBio 61DB10RDF). 50× compound in DMSO was mixed with 16 nM KRAS-acceptor solution and incubated for 30 minutes at room temperature. After compound pre-incubation with KRAS, the RAF1 donor solution was added to the KRAS-acceptor solution and incubated for 1 hour at room temperature. The fluorescence signal emitted was monitored at 665 nm and 615 nm using an Envision multimode plate reader. The HTRF ratio (665/615) was calculated and normalized to 0% inhibition in the absence of compound and 100% inhibition in the presence of untagged RAF1 protein. PPI KRAS G12D/RAF1, KRAS G12V/RAF1, w.t. KRAS/RAF1 and NRAS/RAF1 IC50 (uM) values of selected compounds are depicted in Table 3 and Table 4 with compounds having a value <0.1 uM as ++++; ≥0.1 uM to 1 uM as +++; ≥1 uM to 10 uM as ++; ≥10 uM to 100 uM as +; and ≥100 uM as NA.
# KRAS G12D/RAF1 = target: T2, KRAS G12D/RAF1 (Homo sapiens, UniProt P01116, G12D); assay: Protein-protein interaction (PPI) HTRF assay KRAS G12D/RAF1; format: binding; conditions: Table 2
# T2 construct: KRAS (1-169) proteins were expressed in BL21 (DE3)-CodonPlus E. coli; His6-MBP (N, cleaved yes)
# T2 sequence (P01116 with tags, fused parts or gaps isoform P01116-2 G12D): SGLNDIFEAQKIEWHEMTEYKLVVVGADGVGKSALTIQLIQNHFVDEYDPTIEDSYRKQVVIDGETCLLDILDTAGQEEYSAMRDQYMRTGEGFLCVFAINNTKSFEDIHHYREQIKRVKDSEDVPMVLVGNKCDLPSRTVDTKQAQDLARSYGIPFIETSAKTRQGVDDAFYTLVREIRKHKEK
# Procedure: as §1
# w.t. KRAS/RAF1 = target: T3, w.t. KRAS/RAF1 (Homo sapiens, UniProt P01116); assay: Protein-protein interaction (PPI) HTRF assay w.t. KRAS/RAF1; format: binding; conditions: Table 3; wt KRAS/RAF1
# T3 construct: KRAS (1-169) proteins were expressed in BL21 (DE3)-CodonPlus E. coli; His6-MBP (N, cleaved yes)
# T3 sequence (P01116 with tags, fused parts or gaps isoform P01116-2): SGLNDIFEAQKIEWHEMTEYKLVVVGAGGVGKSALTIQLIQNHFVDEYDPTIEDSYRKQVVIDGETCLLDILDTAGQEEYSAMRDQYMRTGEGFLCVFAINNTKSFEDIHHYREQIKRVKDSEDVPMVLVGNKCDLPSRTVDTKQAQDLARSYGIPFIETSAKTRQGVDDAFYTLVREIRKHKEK
# Procedure: as §1
# [1] = system: phospho-ERK in GP2D (KRAS-G12D) cells; assay: pERK In Cell Western (ICW) assay (Method B), GP2D; format: cell-based; conditions: GP2d, 3 h, Table 4
# Summary of the method: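 Cells were seeded at 5,000/well (AGS) or 10,000/well (GP2D, SW620), grown overnight, then treated 3 h at 37 °C with a ½-log 9-point compound dilution. Fixed cells were stained for phospho-ERK with DRAQ5 as DNA counterstain; pERK/DRAQ5 ratio as percent of blank control gave IC50 by 4-parameter fit.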
# [2] = target: GST-tagged KRAS-G12V (2-169) (Homo sapiens, UniProt P01116, G12V); assay: Nucleotide exchange assay (NEA), SOS-mediated, HTRF, KRAS G12V; format: biochemical; conditions: Table 4; IC50 extracted at 90 min; 80 nM SOS
# Sequence of GST-tagged KRAS-G12V (2-169) (P01116 2-169 isoform P01116-2 G12V): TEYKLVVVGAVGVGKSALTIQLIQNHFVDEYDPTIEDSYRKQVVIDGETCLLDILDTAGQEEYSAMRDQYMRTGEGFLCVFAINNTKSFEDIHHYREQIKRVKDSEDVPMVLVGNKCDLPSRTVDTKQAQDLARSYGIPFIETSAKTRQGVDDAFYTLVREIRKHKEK
# Summary of the method: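 GST-KRAS-G12V (2-169), 0.25 nM, pre-incubated 1 h at RT with compound, then SOS1cat (564-1049) 80 nM and GTP-DY-647P1 150 nM added in HEPES pH 7.3 buffer with MgCl2 and DTT. HTRF via anti-GST Tb cryptate read over 90 min; IC50 from 4-parameter fit at 90 min, blanked to no-SOS reactions.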
# phospho-ERK in AGS cells = assay: pERK In Cell Western (ICW) assay (Method B), AGS; format: cell-based; conditions: Homo sapiens, Table 2, 3 hours
# Procedure: pERK ICW is a high throughput screening assay to evaluate the cellular potency of mutant KRAS small molecule inhibitors. KRAS mutant cell lines AGS, GP2D (KRAS-G12D) as well as SW620 (KRAS-G12V) were purchased from ATCC and maintained respectively in RPMI/DMEM/RPMI medium supplemented with 10% fetal bovine serum.
# Cells grown in exponential phase were trypsinized, resuspended in fresh media, and viable cells were counted using a cell counter with Trypan Blue (BioRad TC20). Cells were seeded into 384-well plate (Greiner 781091) at density of 5,000 cells/well for AGS and 10,000 cells/well for GP2D/SW620 and allowed to grow overnight in a 37° C. CO2 incubator. The next day, compounds were dispensed into wells with a ½ log, 9-point serial dilution using a Tecan D300e dispenser and incubated for 3 hours in a 37° C. CO2 incubator. Cells were then fixed with paraformaldehyde (Electron Microscopy Sciences, 15710, 4% final concentration) for 30 min, permeabilized with wash buffer (1×PBS+0.1% Triton X-100) for 30 min and blocked with Odyssey blocking buffer (Li—COR 927-70001) for 1 hour, all at room temperature (RT). Phospho-ERK antibody (CST 4370L) was diluted 1:500 in Odyssey T20 (PBS) antibody diluent (Li—COR 927-75001) and incubated with cells overnight at 4° C. The next day, plates were washed 5× with wash buffer, incubated with IRDye 800 CW, Goat anti-Rabbit secondary antibody (Li—COR 926-32211, 1:800) and DRAQ5 (CST 4084L, 1:5,000) diluted in Odyssey T20 (PBS) antibody diluent for 1 hour, washed 5×, and imaged on an Odyssey CLx imaging system.
# For data analysis, signal intensities from 800 (phosphor-ERK) and 700 (DRAQ5) channels were extracted, and phospho-ERK signals were normalized to DRAQ5 signals for each well and percent of blank control values were computed. Data were then imported into Graphpad Prism to compute half-maximal inhibitory concentrations (IC50) using a 4-parameter variable slope model. Z-factor for each plate was computed from signals derived from wells treated with either DMSO or 5 μM of control compound. AGS pERK ICW (Method B) IC50 (uM) values of selected compounds are depicted in Table 2 with compounds having a value ≥0.001 uM to 0.01 uM as ++++; ≥0.01 uM to 0.1 uM as +++; ≥0.1 uM to 1 uM as ++; ≥1 uM to 10 uM as + and ≥10 uM as NA.
# [3] = target: GST-tagged KRAS-G12D (2-169) (Homo sapiens, UniProt P01116, G12D); assay: Nucleotide exchange assay (NEA), SOS-mediated, HTRF, KRAS G12D; format: biochemical; conditions: IC50 extracted at 30 min, 20 nM SOScat
# Sequence of GST-tagged KRAS-G12D (2-169) (P01116 2-169 isoform P01116-2 G12D): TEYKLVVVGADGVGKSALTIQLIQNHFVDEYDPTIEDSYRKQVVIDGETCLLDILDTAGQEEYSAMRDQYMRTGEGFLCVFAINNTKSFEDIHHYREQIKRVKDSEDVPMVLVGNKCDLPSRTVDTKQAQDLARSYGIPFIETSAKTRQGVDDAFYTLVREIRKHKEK
# Summary of the method: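 Compound preincubated 1 h at RT with 0.25 nM GST-KRAS-G12D (2-169) and anti-GST Tb donor, then 20 nM SOS1cat (564-1049) and 150 nM GTP-DY-647P1 added; pH 7.3 HEPES buffer with MgCl2 and DTT. HTRF monitored at RT; % inhibition versus DMSO and no-SOS blank, 4-parameter IC50 taken at 30 min.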
# [4] = Table 2, read-out: NEA-G12D (uM) IC50
# [5] = Table 4, read-out: NEA G12D IC50
Compound,IC50 (KRAS G12V/RAF1) [µM],IC50 (KRAS G12D/RAF1) [µM],IC50 (w.t. KRAS/RAF1) [µM],IC50 [1] [µM],IC50 [2] [µM],IC50 (phospho-ERK in AGS cells) [µM],"IC50 [3, 4] [µM]","IC50 [3, 5] [µM]"
"CC1(CO)CCCN(c2nc(OC[C@@]34CCCN3C[C@H](F)C4)nc(N3CC4(CCc5sc(N)c(C#N)c54)C3)n2)C1 (stereo partly drawn) [Compound 18, 2-amino-1′-[4-[[(2R)-2-fluoro-1,2,3,5,6,7-hexahydropyrrolizin-8-yl]methoxy]-6-[3-(hydroxymethyl)-3-methyl-1-piperidyl]-1,3,5-triazin-2-yl]spiro[5,6-dihydrocyclopenta[b]thiophene-4,3′-azetidine]-3-carbonitrile]",1 to 10,1 to 10,1 to 10,1 to 20,0.01 to 0.1,1 to 10,0.01 to 0.1,0.01 to 0.1
"CC1(C#N)CCCN(c2nc(OC[C@@]34CCCN3C[C@H](F)C4)nc(N3CC4(CCc5sc(N)c(C#N)c54)C3)n2)C1 (stereo partly drawn) [Compound 19, 2-amino-1′-[4-(3-cyano-3-methyl-1-piperidyl)-6-[[(2R,8S)-2-fluoro-1,2,3,5,6,7-hexahydropyrrolizin-8-yl]methoxy]-1,3,5-triazin-2-yl]spiro[5,6-dihydrocyclopenta[b]thiophene-4,3′-azetidine]-3-carbonitrile]",1 to 10,1 to 10,1 to 10,0.1 to 1,0.01 to 0.1,0.1 to 1,0.01 to 0.1,0.01 to 0.1
"N#Cc1c(N)sc2c1C1(CC2)CN(c2nc(OC[C@@]34CCCN3C[C@H](F)C4)nc(N3CCC[C@@H](CO)C3)n2)C1 [Compound 20, 2-amino-1′-[4-[[(2R,8S)-2-fluoro-1,2,3,5,6,7-hexahydropyrrolizin-8-yl]methoxy]-6-[(3R)-3-(hydroxymethyl)-1-piperidyl]-1,3,5-triazin-2-yl]spiro[5,6-dihydrocyclopenta[b]thiophene-4,3′-azetidine]-3-carbonitrile]",10 to 100,10 to 100,–,1 to 20,0.01 to 0.1,1 to 10,0.01 to 0.1,0.01 to 0.1
"C[C@]1(O)CN(c2nc(OC[C@@]34CCCN3C[C@H](F)C4)nc(N3CC4(CCc5sc(N)c(C#N)c54)C3)n2)CC[C@H]1O [Compound 21, 2-amino-1′-[4-[(3S,4R)-3,4-dihydroxy-3-methyl-1-piperidyl]-6-[[(2R,8S)-2-fluoro-1,2,3,5,6,7-hexahydropyrrolizin-8-yl]methoxy]-1,3,5-triazin-2-yl]spiro[5,6-dihydrocyclopenta[b]thiophene-4,3′-azetidine]-3-carbonitrile]",1 to 10,0.1 to 1,0.1 to 1,0.1 to 1,0.01 to 0.1,0.1 to 1,0.01 to 0.1,0.01 to 0.1
